The results in this text go back to ChEMBL document CHEMBL4028801, “A multifactorial approach to hepatobiliary transporter assessment enables improved therapeutic compound development” (Toxicol Sci, 2013).

Assay [1] deals with T1, ATP-binding cassette sub-family C member 4 (Homo sapiens, UniProt O15439).
T1 sequence (O15439 whole entry): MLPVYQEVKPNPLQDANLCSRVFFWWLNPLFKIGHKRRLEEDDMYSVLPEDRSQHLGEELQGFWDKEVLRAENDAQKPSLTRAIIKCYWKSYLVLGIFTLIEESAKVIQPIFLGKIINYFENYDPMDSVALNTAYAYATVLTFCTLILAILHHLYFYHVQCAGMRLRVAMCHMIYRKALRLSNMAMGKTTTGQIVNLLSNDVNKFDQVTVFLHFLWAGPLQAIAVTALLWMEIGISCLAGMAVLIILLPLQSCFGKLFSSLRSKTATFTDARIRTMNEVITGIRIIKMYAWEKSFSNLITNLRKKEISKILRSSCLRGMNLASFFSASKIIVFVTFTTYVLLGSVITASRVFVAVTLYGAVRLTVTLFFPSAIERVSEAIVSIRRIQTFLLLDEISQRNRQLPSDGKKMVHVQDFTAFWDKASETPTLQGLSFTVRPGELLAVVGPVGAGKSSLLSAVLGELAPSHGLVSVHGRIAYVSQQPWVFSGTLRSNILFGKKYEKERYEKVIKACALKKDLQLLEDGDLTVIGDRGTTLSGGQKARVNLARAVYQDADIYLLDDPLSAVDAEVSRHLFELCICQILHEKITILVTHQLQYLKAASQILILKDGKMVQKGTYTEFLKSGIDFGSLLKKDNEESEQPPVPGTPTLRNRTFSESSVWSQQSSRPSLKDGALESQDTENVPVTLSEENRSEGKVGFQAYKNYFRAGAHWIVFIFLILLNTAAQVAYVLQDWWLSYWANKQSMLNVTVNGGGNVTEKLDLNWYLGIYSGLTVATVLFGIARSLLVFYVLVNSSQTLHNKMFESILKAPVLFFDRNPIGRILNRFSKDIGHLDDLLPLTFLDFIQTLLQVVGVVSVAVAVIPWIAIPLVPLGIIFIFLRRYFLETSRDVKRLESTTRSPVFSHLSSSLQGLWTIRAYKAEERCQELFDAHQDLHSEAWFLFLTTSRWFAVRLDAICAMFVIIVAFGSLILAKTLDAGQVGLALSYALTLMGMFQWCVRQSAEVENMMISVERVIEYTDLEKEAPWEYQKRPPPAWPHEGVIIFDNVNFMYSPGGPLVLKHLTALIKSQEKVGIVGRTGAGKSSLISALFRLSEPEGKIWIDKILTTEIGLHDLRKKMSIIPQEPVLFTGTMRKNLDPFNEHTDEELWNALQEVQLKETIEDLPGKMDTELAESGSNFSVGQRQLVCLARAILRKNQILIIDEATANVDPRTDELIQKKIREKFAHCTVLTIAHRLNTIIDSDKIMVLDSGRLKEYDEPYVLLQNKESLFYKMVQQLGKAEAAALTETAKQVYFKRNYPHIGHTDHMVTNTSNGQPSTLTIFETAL
The assay is described as follows: Inhibition of human MRP4 overexpressed in Sf9 cell membrane vesicles assessed as uptake of [3H]-estradiol-17beta-D-glucuronide in presence of ATP and GSH measured after 20 mins by membrane vesicle transport assay. In kind it is ADME, cell-based.

Assay [2] addresses ATP-binding cassette sub-family C member 2 (Homo sapiens, UniProt Q92887). The experiment in a line: Inhibition of human MRP2 overexpressed in Sf9 cell membrane vesicles assessed as uptake of [3H]-estradiol-17beta-D-glucuronide in presence of ATP and GSH measured after 20 mins by membrane vesicle transport assay.
Assay [3] deals with ATP-binding cassette sub-family C member 3 (Homo sapiens, UniProt O15438). The experiment in a line: Inhibition of human MRP3 overexpressed in Sf9 insect cell membrane vesicles assessed as uptake of [3H]-estradiol-17beta-D-glucuronide in presence of ATP and GSH measured after 10 mins by membrane vesicle transport assay. In kind it is ADME, cell-based.
Chain of ATP-binding cassette sub-family C member 3 (O15438 whole entry): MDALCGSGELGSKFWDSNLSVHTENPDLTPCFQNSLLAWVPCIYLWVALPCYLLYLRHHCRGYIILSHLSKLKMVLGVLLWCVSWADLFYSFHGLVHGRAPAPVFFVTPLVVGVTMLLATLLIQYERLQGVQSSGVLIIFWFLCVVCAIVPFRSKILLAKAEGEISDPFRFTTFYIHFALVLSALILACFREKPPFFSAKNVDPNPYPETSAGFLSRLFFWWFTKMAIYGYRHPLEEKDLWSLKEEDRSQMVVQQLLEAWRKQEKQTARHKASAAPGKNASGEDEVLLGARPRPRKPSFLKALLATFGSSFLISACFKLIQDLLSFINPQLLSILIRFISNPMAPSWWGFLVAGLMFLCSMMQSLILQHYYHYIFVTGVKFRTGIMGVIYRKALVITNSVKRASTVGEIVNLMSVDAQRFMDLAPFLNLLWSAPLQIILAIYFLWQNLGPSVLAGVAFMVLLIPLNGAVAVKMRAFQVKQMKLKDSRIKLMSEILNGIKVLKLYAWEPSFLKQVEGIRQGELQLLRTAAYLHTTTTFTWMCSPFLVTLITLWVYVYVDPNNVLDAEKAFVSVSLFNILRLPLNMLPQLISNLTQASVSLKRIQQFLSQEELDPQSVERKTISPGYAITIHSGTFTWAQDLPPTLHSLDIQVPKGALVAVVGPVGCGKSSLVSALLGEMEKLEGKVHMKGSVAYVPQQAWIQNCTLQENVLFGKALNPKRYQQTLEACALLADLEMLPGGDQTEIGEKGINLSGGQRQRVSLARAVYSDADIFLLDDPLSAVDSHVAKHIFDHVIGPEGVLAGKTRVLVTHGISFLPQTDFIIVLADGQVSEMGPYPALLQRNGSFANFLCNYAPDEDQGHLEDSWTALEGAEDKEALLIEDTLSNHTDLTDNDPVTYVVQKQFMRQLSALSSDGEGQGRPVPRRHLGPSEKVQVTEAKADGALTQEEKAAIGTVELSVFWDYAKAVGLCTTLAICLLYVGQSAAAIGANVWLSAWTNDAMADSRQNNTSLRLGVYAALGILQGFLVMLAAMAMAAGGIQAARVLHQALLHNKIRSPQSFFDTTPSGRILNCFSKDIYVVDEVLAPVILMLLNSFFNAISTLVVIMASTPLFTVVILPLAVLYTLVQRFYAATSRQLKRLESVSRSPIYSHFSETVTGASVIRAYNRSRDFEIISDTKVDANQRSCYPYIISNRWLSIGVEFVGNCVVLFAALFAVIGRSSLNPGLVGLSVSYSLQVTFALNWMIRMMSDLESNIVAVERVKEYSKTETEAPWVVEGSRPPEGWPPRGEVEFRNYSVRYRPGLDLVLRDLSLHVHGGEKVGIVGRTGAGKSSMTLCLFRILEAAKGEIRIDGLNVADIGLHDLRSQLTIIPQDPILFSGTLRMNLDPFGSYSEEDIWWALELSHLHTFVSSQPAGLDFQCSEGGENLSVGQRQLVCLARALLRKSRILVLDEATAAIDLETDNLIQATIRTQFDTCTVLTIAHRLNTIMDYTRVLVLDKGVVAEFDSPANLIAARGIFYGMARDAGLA

Structures can show the parent of a compound that is named as a salt.

Chain of ATP-binding cassette sub-family C member 2 (Q92887 whole entry): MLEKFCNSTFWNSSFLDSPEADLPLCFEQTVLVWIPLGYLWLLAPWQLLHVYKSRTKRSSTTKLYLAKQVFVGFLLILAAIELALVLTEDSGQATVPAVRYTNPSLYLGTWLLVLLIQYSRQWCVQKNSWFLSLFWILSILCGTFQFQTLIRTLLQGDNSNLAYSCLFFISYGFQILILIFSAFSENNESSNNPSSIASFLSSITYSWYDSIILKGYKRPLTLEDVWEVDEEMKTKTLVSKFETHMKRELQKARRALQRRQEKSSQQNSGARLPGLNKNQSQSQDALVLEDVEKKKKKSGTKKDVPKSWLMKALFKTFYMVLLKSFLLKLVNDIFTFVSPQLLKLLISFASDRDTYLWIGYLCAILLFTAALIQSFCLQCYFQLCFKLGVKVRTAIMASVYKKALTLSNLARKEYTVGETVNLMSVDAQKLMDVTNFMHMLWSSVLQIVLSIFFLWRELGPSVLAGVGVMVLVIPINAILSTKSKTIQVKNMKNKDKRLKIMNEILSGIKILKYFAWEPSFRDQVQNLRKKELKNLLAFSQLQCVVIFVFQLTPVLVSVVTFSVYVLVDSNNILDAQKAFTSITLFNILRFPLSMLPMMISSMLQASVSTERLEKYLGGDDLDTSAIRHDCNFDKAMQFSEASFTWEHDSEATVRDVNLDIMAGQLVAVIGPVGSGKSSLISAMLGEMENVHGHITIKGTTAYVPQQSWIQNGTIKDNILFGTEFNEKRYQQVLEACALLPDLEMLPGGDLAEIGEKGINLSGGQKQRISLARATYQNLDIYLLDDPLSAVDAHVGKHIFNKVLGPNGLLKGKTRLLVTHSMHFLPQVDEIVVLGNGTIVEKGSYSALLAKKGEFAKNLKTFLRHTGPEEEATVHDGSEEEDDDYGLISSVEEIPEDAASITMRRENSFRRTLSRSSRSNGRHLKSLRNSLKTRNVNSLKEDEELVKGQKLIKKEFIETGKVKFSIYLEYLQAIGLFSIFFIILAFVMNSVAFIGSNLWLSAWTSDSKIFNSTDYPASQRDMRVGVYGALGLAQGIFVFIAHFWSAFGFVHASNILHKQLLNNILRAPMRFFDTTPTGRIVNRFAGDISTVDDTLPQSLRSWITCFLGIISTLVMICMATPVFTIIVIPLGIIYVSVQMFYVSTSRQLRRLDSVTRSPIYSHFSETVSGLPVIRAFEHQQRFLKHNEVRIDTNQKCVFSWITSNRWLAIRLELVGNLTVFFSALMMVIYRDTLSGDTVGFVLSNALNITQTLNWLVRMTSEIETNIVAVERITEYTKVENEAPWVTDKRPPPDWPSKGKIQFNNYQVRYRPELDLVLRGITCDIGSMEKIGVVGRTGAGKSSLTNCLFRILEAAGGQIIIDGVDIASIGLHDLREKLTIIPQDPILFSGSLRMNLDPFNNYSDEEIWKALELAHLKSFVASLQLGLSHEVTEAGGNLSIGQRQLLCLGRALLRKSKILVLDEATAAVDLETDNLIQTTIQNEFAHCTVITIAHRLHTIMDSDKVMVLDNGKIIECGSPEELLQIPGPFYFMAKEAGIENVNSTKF

What is called IC50 is the concentration that inhibits the measured activity by half. On to `O=C(O)c1cn(C2CC2)c2cc(N3CCNCC3)c(F)cc2c1=O` [CIPROFLOXACIN], for which the IC50 in assay [1], in assay [2] and in assay [3] was > 133 µM in each case.

In the case of `OC(CCN1CCCC1)(c1ccccc1)C1CCCCC1` (stereo not drawn) [PROCYCLIDINE], the 50% inhibitory concentration (IC50) in assay [1], in assay [2] and in assay [3] was > 133 µM in each case.

Regarding `Clc1ccccc1CN1CCc2sccc2C1` [TICLOPIDINE HYDROCHLORIDE], the 50% inhibitory concentration (IC50) in assay [1], in assay [2] and in assay [3] was > 133 µM in each case.

Consider `COc1cc2c(c(OC)c1OC)-c1ccc(OC)c(=O)cc1[C@@H](NC(C)=O)CC2` [COLCHICINE], for which the 50% inhibitory concentration (IC50) in assay [1], in assay [2] and in assay [3] was > 133 µM throughout.

As for `CN1CCN2c3ncccc3Cc3ccccc3C2C1` (stereo not drawn) [MIRTAZAPINE], the half-inhibitory concentration (IC50) in assay [1], in assay [2] and in assay [3] was > 133 µM throughout.

In the case of `CN(C)[C@@H]1C(O)=C(C(N)=O)C(=O)[C@@]2(O)C(O)=C3C(=O)c4c(O)cccc4[C@@](C)(O)[C@H]3C[C@@H]12` [TETRACYCLINE], the IC50 in assay [1], in assay [2] and in assay [3] was > 133 µM throughout.

On to `CC1=C(C(=O)O)N2C(=O)[C@@H](NC(=O)[C@H](N)c3ccc(O)cc3)[C@H]2SC1` [CEFADROXIL], for which the concentration for half-maximal inhibition (IC50) in assay [1], in assay [2] and in assay [3] was > 133 µM throughout.

With `CN(C)CCCN1c2ccccc2CCc2ccc(Cl)cc21` [CLOMIPRAMINE], the IC50 in assay [1], in assay [2] and in assay [3] was > 133 µM in each case.

In the case of `CC[C@H]1OC(=O)[C@H](C)[C@@H](O[C@H]2C[C@@](C)(OC)[C@@H](O)[C@H](C)O2)[C@H](C)[C@@H](O[C@@H]2O[C@H](C)C[C@H](N(C)C)[C@H]2O)[C@](C)(O)C[C@@H](C)C(=O)[C@H](C)[C@@H](O)[C@]1(C)O`, the figures for the IC50 in assay [1], in assay [2] and in assay [3] were 68.2 µM, > 133 µM and > 133 µM, respectively.

Consider `CN/C(=N/CCSCc1nc[nH]c1C)NC#N` [CIMETIDINE], for which the IC50 in assay [1], in assay [2] and in assay [3] was > 133 µM each time.

For `C[C@]12CC[C@H]3[C@@H](CCC4=CC(=O)CC[C@@]43C)[C@@H]1CC[C@@H]2O` [TESTOSTERONE], the IC50 in assay [1], in assay [2] and in assay [3] was > 133 µM in each case.

`O=c1[nH]cnc2c1ncn2[C@H]1CC[C@@H](CO)O1` [DIDANOSINE]: the IC50 in assay [1], in assay [2] and in assay [3] was > 133 µM in each case.

Take `OCCOCCN1CCN(C2=Nc3ccccc3Sc3ccccc32)CC1` [QUETIAPINE FUMARATE]: the IC50 in assay [1], in assay [2] and in assay [3] was > 133 µM in each case.

As to `CNCCCC12CCC(c3ccccc31)c1ccccc12` [MAPROTILINE], the IC50 in assay [1], in assay [2] and in assay [3] was > 133 µM each time.

On to `CCCCC[C@H](O)/C=C/[C@H]1[C@H](O)CC(=O)[C@@H]1CCCCCCC(=O)O` [ALPROSTADIL], for which the IC50 in assay [1] was 2.3 µM; in assay [2], > 133 µM; in assay [3] it was 26.9 µM.

For `COC(=O)Nc1nc2ccc(C(=O)c3ccccc3)cc2[nH]1` [MEBENDAZOLE], the 50% inhibitory concentration (IC50) in assay [1] is 15.5 µM; in assay [2] it was > 133 µM; in assay [3] it was > 133 µM.

In the case of `Nc1cc(N2CCCCC2)nc(N)[n+]1[O-]` [MINOXIDIL], the 50% inhibitory concentration (IC50) in assay [1], in assay [2] and in assay [3] was > 133 µM throughout.

`CN(C)CC[C@@H](c1ccc(Br)cc1)c1ccccn1` [DEXBROMPHENIRAMINE MALEATE]: the IC50 in assay [1], in assay [2] and in assay [3] was > 133 µM each time.

For the compound `Cn1cc[nH]c1=S` [METHIMAZOLE], the concentration for half-maximal inhibition (IC50) in assay [1], in assay [2] and in assay [3] was > 133 µM in each case.

For the compound `CC(C)[C@@H]1NC(=O)[C@H](C)OC(=O)[C@@H](C(C)C)NC(=O)[C@@H](C(C)C)OC(=O)[C@H](C(C)C)NC(=O)[C@H](C)OC(=O)[C@@H](C(C)C)NC(=O)[C@@H](C(C)C)OC(=O)[C@H](C(C)C)NC(=O)[C@H](C)OC(=O)[C@@H](C(C)C)NC(=O)[C@@H](C(C)C)OC1=O` [VALINOMYCIN], the IC50 in assay [1], in assay [2] and in assay [3] was > 133 µM throughout.

`C(=C\c1ccccc1)/CN1CCN(C(c2ccccc2)c2ccccc2)CC1` [CINNARIZINE]: the concentration for half-maximal inhibition (IC50) in assay [1], in assay [2] and in assay [3] was > 133 µM in each case.

With `CC(C)NCC(O)COc1cccc2ccccc12` (stereo not drawn) [PROPRANOLOL], the half-maximal inhibitory concentration (IC50) in assay [1], in assay [2] and in assay [3] was > 133 µM in each case.

Turning to `Cc1nc2n(c(=O)c1CCN1CCC(c3noc4cc(F)ccc34)CC1)CCCC2` [RISPERIDONE], the 50% inhibitory concentration (IC50) in assay [1], in assay [2] and in assay [3] was > 133 µM each time.

Regarding `Nc1ccn([C@@H]2O[C@H](CO)[C@@H](O)[C@@H]2O)c(=O)n1` [CYTARABINE], the concentration for half-maximal inhibition (IC50) in assay [1], in assay [2] and in assay [3] was > 133 µM throughout.

Take `C=C(CC)C(=O)c1ccc(OCC(=O)O)c(Cl)c1Cl` [ETHACRYNIC ACID]: the IC50 in assay [1] is > 133 µM; in assay [2], 3.85 µM; in assay [3], 95.9 µM.

Turning to `CN1[C@@H]2CC[C@H]1C[C@@H](OC(=O)C(CO)c1ccccc1)C2` (mixture of isomers) [ATROPINE], the IC50 in assay [1], in assay [2] and in assay [3] was > 133 µM throughout.

`CCN(CC)C(=S)SSC(=S)N(CC)CC`: the concentration for half-maximal inhibition (IC50) in assay [1], in assay [2] and in assay [3] was > 133 µM in each case.

Turning to `CC(=O)Nc1nnc(S(N)(=O)=O)s1` [ACETAZOLAMIDE], the IC50 in assay [1], in assay [2] and in assay [3] was > 133 µM each time.

Consider `NCCCC[C@H](N[C@@H](CCc1ccccc1)C(=O)O)C(=O)N1CCC[C@H]1C(=O)O` [LISINOPRIL ANHYDROUS], for which the IC50 in assay [1], in assay [2] and in assay [3] was > 133 µM each time.

On to `COc1cc([C@@H]2c3cc4c(cc3[C@@H](O[C@@H]3O[C@@H]5CO[C@@H](C)O[C@H]5[C@H](O)[C@H]3O)[C@H]3COC(=O)[C@H]23)OCO4)cc(OC)c1O` [ETOPOSIDE], for which the half-maximal inhibitory concentration (IC50) in assay [1], in assay [2] and in assay [3] was > 133 µM throughout.

With `Cc1ncc([N+](=O)[O-])n1CCO` [METRONIDAZOLE], the IC50 in assay [1], in assay [2] and in assay [3] was > 133 µM each time.

Regarding `COCCCC/C(=N\OCCN)c1ccc(C(F)(F)F)cc1` [FLUVOXAMINE MALEATE], the IC50 in assay [1], in assay [2] and in assay [3] was > 133 µM throughout.

With `C[C@@H](O)[C@H]1C(=O)N2C(C(=O)O)=C(S[C@@H]3CN[C@H](CNS(N)(=O)=O)C3)[C@H](C)[C@H]12` [DORIPENEM], the half-maximal inhibitory concentration (IC50) in assay [1], in assay [2] and in assay [3] was > 133 µM throughout.

For the compound `CN(C)CCC=C1c2ccccc2COc2ccccc21` [DOXEPIN], the IC50 in assay [1], in assay [2] and in assay [3] was > 133 µM throughout.

As for `NS(=O)(=O)c1cc(C(=O)O)c(NCc2ccco2)cc1Cl` [FUROSEMIDE], the half-inhibitory concentration (IC50) in assay [1], in assay [2] and in assay [3] was > 133 µM throughout.

Consider `CC[C@@H](CO)NCCN[C@@H](CC)CO` [ETHAMBUTOL HYDROCHLORIDE], for which the half-inhibitory concentration (IC50) is > 133 µM in assay [1], > 133 µM in assay [2] and 88.2 µM in assay [3].
